# Measured values published in paper PMC3628851, “Combined Approaches for Drug Design Points the Way to Novel Proline Racemase Inhibitor Candidates to Fight Chagas’ Disease” (PLoS ONE, 2013).
# Where two headings read alike, the source gives them in different places.
# Key:
# Solubility (qualitative) = assay type: physicochemical; settings: for Solubility: solvent in which the compound is soluble, qualitative
# T. cruzi [1] = test: Vero cell infection by T. cruzi trypomastigotes, endocytic index (Giemsa count); assay type: cell-based, Trypanosoma cruzi; settings: for Endocytic index (EI): added with parasites, 17 h, Vero cells
# Method: Cell culture-derived trypomastigotes from T. cruzi CL Brener (clone F11-F5) were isolated from the supernatant of bulk cultures of green monkey Vero kidney cells previously infected with bloodstream trypomastigotes. Known numbers of parasites, adherent infected cells and uninfected cell controls were lysed with 0.1 mL of 0.05% Tween 20 solution in sterile distilled water and the lysates were frozen. Vero cells were seeded in LabTek slides (5×10^4 cells/well) in RPMI 1640 medium/5% FCS and kept at 37°C, 5% CO2. […] To test the effect of the inhibitors on the parasite intracellular cycle, […] different dilutions of the compounds. All cultures were then washed with PBS, fixed and stained with Giemsa. The number of infected host cells was recorded along with the number of parasites per infected cell in at least 400 host cells, in duplicate experiments. Results were expressed as the endocytic index (EI) resulting from the product of the percentage of infected cells and the mean number of parasites per infected cell. Control cultures were incubated in medium alone or with equal DMSO concentrations.
# (§1) To verify the potential of these new PRAC inhibitors as lead compounds in drug design strategies, we compared their effects on cultures of host Vero cells infected or not with T. cruzi, with that of PYC. […] To determine whether the treatment of these cultures with the new compounds would indeed affect intracellular TcPRAC and as such interfere with parasite intracellular fate cells were then washed after parasite uptake and the same ligand concentrations as above (10 µM − 30 µM) were added to the cultures in fresh medium. The degree of infection was determined over 48 hours by capture ELISA. As expected, the number of parasites per well decreased in a dose-dependent manner (Figure 7). In vitro and in vivo experiments using mutant parasites that carry the luciferase gene are now in progress to support those data.
# TcPRAC [2] = molecular target: T1, TcPRAC (Trypanosoma cruzi, UniProt Q4DA80); test: TcPRAC inhibition by PYC derivatives (polarimetry and DAAO methodologies); assay type: biochemical
# T1 construct: His tag (inferred from nickel IMAC purification); made in house; host or cells: E. coli BL21 (DE3)
# T1 sequence (Q4DA80 32-423): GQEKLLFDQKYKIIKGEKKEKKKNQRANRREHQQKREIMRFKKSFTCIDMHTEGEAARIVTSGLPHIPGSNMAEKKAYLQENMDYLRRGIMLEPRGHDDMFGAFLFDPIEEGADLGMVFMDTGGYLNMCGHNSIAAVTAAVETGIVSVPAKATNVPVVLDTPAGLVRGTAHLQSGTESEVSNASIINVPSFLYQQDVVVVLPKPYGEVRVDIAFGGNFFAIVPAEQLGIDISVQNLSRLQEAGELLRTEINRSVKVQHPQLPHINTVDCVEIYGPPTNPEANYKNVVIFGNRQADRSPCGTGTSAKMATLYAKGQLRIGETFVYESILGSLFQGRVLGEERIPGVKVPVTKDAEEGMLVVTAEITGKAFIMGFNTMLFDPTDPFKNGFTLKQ
# Method: Recombinant Trypanosoma cruzi proline racemase (EC 5.1.1.4) was produced in E. Coli BL21 (DE3) (Invitrogen) and purified by immobilized metal affinity chromatography on nickel columns, as previously described.
# (§2) Optimum Proline racemization conditions for TcPRAC were determined using 10–300 mM L-Proline in 0.2 M NaOAc over a range of pH values, as described and L- to D- proline conversion took place in 1.5 mL reaction. Concentrations of D-proline formed were determined by optical rotation of the solution at 365 nm in a 10 cm optical path cell, thermostated at 37°C, using a polarimeter (Perkin Elmer 241 MC). Assays were also performed into microtiter plates (100 µL), as follows: dilutions of L- Proline (40 mM to 2.5 mM) in 0.2 M sodium acetate pH 6.0 and 0.25 mM TcPRAC were loaded into microtiter plate wells with 0–20 µM PYC or similar concentrations of potential inhibitors. Controls omitted TcPRAC and/or PYC. The microtiter plates were incubated for 30 minutes at 37°C. The enzyme was inactivated by heating in a microwave oven for 15 s at 900 Watts and shifting the pH to 8.3 by adding 6.8 µL of 0.235 M sodium pyrophosphate. The presence of D-Proline was tested in 50 µL from each well using the D-amino oxidase - Horse Radish Peroxidase/OPD combined test. Interference caused by the possible reactivity of amino acid L-forms with DAAOx was taken into account by using standards consisting of serial dilutions of an equimolar mixture of D- and L-proline ranging from 0 to 10 mM (10 mM total). For instance, DAAOx reacts with L-Proline 300 times slower than with D-Proline. Optical densities, OD490 nm – OD650 nm were recorded on a microtiter plate reader (Molecular Devices), and the signals from the blank control wells were deducted.
# TcPRAC [3] = molecular target: T1, TcPRAC; test: Inhibition of TcPRAC proline racemization measured by polarimetry; assay type: biochemical
# Method: as §2
# (§3) Only two novel TcPRAC inhibitors, both provided by the CN, were identified among these (Figure 4B).
# TcPRAC [4] = molecular target: T1, TcPRAC; test: DAAOx test of D-proline formed by TcPRAC; assay type: biochemical; settings: for D-Proline formed: inhibitor 10 µM, without inhibitor 5.0 µM
# Method: as §2, §3
# T. cruzi [5] = test: Vero cell infection by T. cruzi, total parasite numbers/culture by capture ELISA; assay type: cell-based, Trypanosoma cruzi
# Method: Cell culture-derived trypomastigotes from T. cruzi CL Brener (clone F11-F5) were isolated from the supernatant of bulk cultures of green monkey Vero kidney cells previously infected with bloodstream trypomastigotes. Known numbers of parasites, adherent infected cells and uninfected cell controls were lysed with 0.1 mL of 0.05% Tween 20 solution in sterile distilled water and the lysates were frozen. Vero cells were seeded in LabTek slides (5×10^4 cells/well) in RPMI 1640 medium/5% FCS and kept at 37°C, 5% CO2. […] To test the effect of the inhibitors on the parasite intracellular cycle, cultures were infected at 37°C for 17 hours without inhibitors, washed three times to eliminate extracellular parasites then incubated for up to 48 hours with fresh medium containing different dilutions of the compounds. All cultures were then washed with PBS, fixed and stained with Giemsa. The number of infected host cells was recorded along with the number of parasites per infected cell in at least 400 host cells, in duplicate experiments. Results were expressed as the endocytic index (EI) resulting from the product of the percentage of infected cells and the mean number of parasites per infected cell. Control cultures were incubated in medium alone or with equal DMSO concentrations.
# Flat-bottomed microtiter plates (Nunc, Denmark) were coated overnight at 4°C with rabbit anti-T. cruzi polyclonal antibodies and further blocked for 4 h at room temperature (RT) with 1% BSA, 0.05% Tween 20 in PBS. After washings, lysate samples from infected or control Vero cultures, or from T. cruzi, were then added and incubated at 4°C for 18 h. Plates were washed with PBS-Tween and incubated for 2 h at RT with polyclonal mouse anti-T. cruzi chronic serum, washed again and incubated for 1 h at RT with HRP-secondary antibodies. […] Optical densities were determined in a spectrophotometer at 450 nm and 650 nm, and analyzed by Softmax Pro software.
# as §1
# Total parasite numbers/culture were estimated by capture ELISA.
# non infected Vero cells = test: Viability of non infected Vero cells; assay type: cell-based, green monkey; settings: 3, 10 and 30 µM
# Method: Cell culture-derived trypomastigotes from T. cruzi CL Brener (clone F11-F5) were isolated from the supernatant of bulk cultures of green monkey Vero kidney cells previously infected with bloodstream trypomastigotes. Known numbers of parasites, adherent infected cells and uninfected cell controls were lysed with 0.1 mL of 0.05% Tween 20 solution in sterile distilled water and the lysates were frozen. Vero cells were seeded in LabTek slides (5×10^4 cells/well) in RPMI 1640 medium/5% FCS and kept at 37°C, 5% CO2. […] The number of infected host cells was recorded along with the number of parasites per infected cell in at least 400 host cells, in duplicate experiments. Results were expressed as the endocytic index (EI) resulting from the product of the percentage of infected cells and the mean number of parasites per infected cell. […]
# To verify the potential of these new PRAC inhibitors as lead compounds in drug design strategies, we compared their effects on cultures of host Vero cells infected or not with T. cruzi, with that of PYC. […] The degree of infection was determined over 48 hours by capture ELISA. […]
# TcPRAC [6] = molecular target: T1, TcPRAC; test: Kinetics of D-proline formation with time / enzyme inactivation (polarimetry); assay type: biochemical; settings: for mode of TcPRAC inhibition: pre-incubation 5 or 10 min, 15 fold dilution, 300 mM L-proline
# Method: Kinetic reaction assays using fixed amounts of dimeric PRAC (22 µg –0.24 µM final), 40 mM substrate and 10 µM of the identified inhibitors were performed to characterize their effect on enzymatic activity (Figure 5). […] To further characterize the mode of action of this two molecules, the enzyme was pre-incubated (concentration 22 µg − 3,6 µM) with different concentration of inhibitor, for 5 or 10 min to determine inhibition dependence to inhibitor concentration and pre-incubation time. Then, the reaction mixture was diluted 15 fold and residual activity was determined in an excess of substrate (300 mM of L- proline).
# Figure 5 Kinetics of D-proline formation with time in the presence or absence of TcPRAC inhibitors. (A) Concentrations of D-proline formed were determined by polarimetry in reaction assays containing 0.15 µM of TcPRAC and 40 mM L proline (see Material and Methods).
# TcPRAC [7] = molecular target: T1, TcPRAC; settings: cited from earlier work
# [8] = read-out: Racemization Inhibition
# [9] = 10 µM inhibitor, 40 mM substrate, 0.24 µM PRAC
# [10] = classical Michaelian approaches
smiles,measurement,setting,value
"O=C(O)/C=C/C(=O)CBr [Br-OxoPA, (E)-5-bromo-4-oxopent-2-enoic acid]",solubility in water,Solubility (qualitative),soluble
same,lower dose than PYC necessary to obtain the same endocytic index,T. cruzi [1]; 1000 µM PYC equivalent to 10 µM OxoPA or 30 µM Br-OxoPA,30 fold
same,Endocytic index (EI),T. cruzi [1]; inhibitor 3 µM,78
same,Endocytic index (EI),T. cruzi [1]; inhibitor 10 µM,42
same,Endocytic index (EI),T. cruzi [1]; inhibitor 30 µM,29
same,more potent than PYC in inhibiting TcPRAC,TcPRAC [2],4 fold
same,IC50,TcPRAC [3],2.5 µM
same,inhibition at 2.5 µM,TcPRAC [3]; [8],50%
same,inhibition at 10 µM,TcPRAC [3]; [8],81.3%
same,inhibition of conversion of L- into D-proline relative to PYC,"TcPRAC [4]; equivalent concentrations, DAAOx test",more than 5 times
same,D-Proline formed,TcPRAC [4],<0.3 µM
same,"percentage in Figure 7 (effect on total parasite numbers/culture, capture ELISA)",T. cruzi [5]; 5 µM,24%
same,"percentage in Figure 7 (effect on total parasite numbers/culture, capture ELISA)",T. cruzi [5]; 10 µM,34%
same,"percentage in Figure 7 (effect on total parasite numbers/culture, capture ELISA)",T. cruzi [5]; 30 µM,39%
same,viability of non infected Vero cells,non infected Vero cells,neither OxoPA nor Br-OxoPA considerably affected the viability
same,time at which plateau of enzyme inactivation is reached,TcPRAC [6]; [9],250 s
same,mode of TcPRAC inhibition,TcPRAC [6],irreversible
"O=C(O)c1n[nH]cc1Br [Br-PZC, 4-bromo-1H-pyrazole-3-carboxylic acid]",Solubility,Solubility (qualitative),Water
same,Ki,TcPRAC [2]; [10],1000 µM
same,Ki,TcPRAC [2]; values in text,~1000 µM
"O=C(O)c1n[nH]cc1Cl [Cl-PZC, 4-chloro-1H-pyrazole-3-carboxylic acid]",Solubility,Solubility (qualitative),Water
same,Ki,TcPRAC [2]; [10],300 µM
same,Ki,TcPRAC [2]; values in text,~300 µM
"CCc1c[nH]nc1C(=O)O [Et-PZC, 4-Ethyl-pyrazole-3-carboxylic acid]",Solubility,Solubility (qualitative),Water
same,Ki,TcPRAC [2]; [10],> 2000 µM
"Cc1[nH]nc(C(=O)O)c1Cl [M-Cl-PZC, 4-chloro-5-methyl-1H-pyrazole-3-carboxylic acid]",Solubility,Solubility (qualitative),Ethanol
same,Ki,TcPRAC [2]; [10],> 2000 µM
"CC(=O)/C=C/C(=O)O [OxoPA, (E)-4-oxopent-2-enoic acid]",more potent than PYC in inhibiting TcPRAC,TcPRAC [2],2 fold
same,IC50,TcPRAC [3],3 µM
same,inhibition at 3 µM,TcPRAC [3]; [8],50%
same,D-Proline formed,TcPRAC [4],<0.3 µM
same,"percentage in Figure 7 (effect on total parasite numbers/culture, capture ELISA)",T. cruzi [5]; 5 µM,9%
same,"percentage in Figure 7 (effect on total parasite numbers/culture, capture ELISA)",T. cruzi [5]; 10 µM,14%
same,"percentage in Figure 7 (effect on total parasite numbers/culture, capture ELISA)",T. cruzi [5]; 30 µM,15%
same,viability of non infected Vero cells,non infected Vero cells,neither OxoPA nor Br-OxoPA considerably affected the viability
same,time at which plateau of enzyme inactivation is reached,TcPRAC [6]; [9],350 s
same,mode of TcPRAC inhibition,TcPRAC [6],irreversible
"O=C(O)c1ccc[nH]1 [PYC, 2-pyrrolecarboxylic acid, reference compound]",solubility in water,Solubility (qualitative),water-insoluble
same,Solubility,Solubility (qualitative),Ethanol
same,Endocytic index (EI),T. cruzi [1]; inhibitor 10 µM,44
same,Endocytic index (EI),T. cruzi [1]; inhibitor 100 µM,30
same,Endocytic index (EI),T. cruzi [1]; inhibitor 1000 µM,25
same,mode of TcPRAC inhibition,TcPRAC [7],classical competitive and reversible
same,Ki,TcPRAC [2]; [10],6 to 10 µM
same,IC50,TcPRAC [3],10 µM
same,inhibition at 10 µM,TcPRAC [3]; [8],56.9%
same,D-Proline formed,TcPRAC [4],2.4 µM (IC50)
same,"percentage in Figure 7 (effect on total parasite numbers/culture, capture ELISA)",T. cruzi [5]; 10 µM,4%
same,"percentage in Figure 7 (effect on total parasite numbers/culture, capture ELISA)",T. cruzi [5]; 100 µM,2%
same,"percentage in Figure 7 (effect on total parasite numbers/culture, capture ELISA)",T. cruzi [5]; 1 mM,0%
same,"racemization speed of L-proline, % of original speed",TcPRAC [6]; [9],~37%
"O=C(O)c1cc[nH]n1 [PZC, 1H-pyrazole-3-carboxylic acid]",Solubility,Solubility (qualitative),Water
same,Ki,TcPRAC [2]; [10],> 2000 µM
